Data as given in patent US4375475A, “Substituted pyranone inhibitors of cholesterol synthesis” (Merck & Co., Inc., priority 1981, dated 1983).
Structures can show the parent of a compound that is named as a salt. Where two headings read alike, the source gives them in different places.

How the values were obtained:
[1] = biological target: T1, 3-hydroxy-3-methylglutaryl-coenzyme A reductase (Rattus norvegicus, UniProt P51639); test: method A: in vitro method of H. J. Knauss et al., inhibition of 50% of the enzymatic activity; type: biochemical; conditions: compounds tested as the sodium salts of their corresponding hydroxy acid forms
T1 construct: from tissue
T1 sequence (P51639 1-887): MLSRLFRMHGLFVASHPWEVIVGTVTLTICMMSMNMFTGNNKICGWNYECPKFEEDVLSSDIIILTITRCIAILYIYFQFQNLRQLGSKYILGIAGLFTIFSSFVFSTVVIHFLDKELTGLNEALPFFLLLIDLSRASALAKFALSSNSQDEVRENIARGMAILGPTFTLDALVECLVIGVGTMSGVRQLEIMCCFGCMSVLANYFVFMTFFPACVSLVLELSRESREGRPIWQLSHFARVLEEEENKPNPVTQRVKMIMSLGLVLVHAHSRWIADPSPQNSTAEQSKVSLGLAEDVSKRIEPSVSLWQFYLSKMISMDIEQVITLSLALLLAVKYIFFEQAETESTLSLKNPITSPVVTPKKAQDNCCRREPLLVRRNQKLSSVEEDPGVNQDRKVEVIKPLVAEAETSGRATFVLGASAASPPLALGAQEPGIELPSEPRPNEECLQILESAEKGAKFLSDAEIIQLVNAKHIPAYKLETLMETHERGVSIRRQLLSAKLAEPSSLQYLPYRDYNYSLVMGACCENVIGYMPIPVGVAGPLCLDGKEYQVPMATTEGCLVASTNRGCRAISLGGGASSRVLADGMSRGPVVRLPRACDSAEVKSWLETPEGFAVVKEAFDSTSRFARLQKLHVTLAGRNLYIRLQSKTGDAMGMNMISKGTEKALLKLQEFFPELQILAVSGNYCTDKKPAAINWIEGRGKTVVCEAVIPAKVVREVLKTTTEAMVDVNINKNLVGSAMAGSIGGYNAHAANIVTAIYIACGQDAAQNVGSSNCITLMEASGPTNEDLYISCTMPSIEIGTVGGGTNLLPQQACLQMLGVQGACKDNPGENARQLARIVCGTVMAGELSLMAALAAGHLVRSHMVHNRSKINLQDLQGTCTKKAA
Text: The inhibitory activity of these compounds for the biosynthesis of cholesterol has been measured by two methods. The experimental method A was the in vitro method of H. J. Knauss, et al., J. Biol. Chem., 234, 2835 (1959) and the activity was expressed as the molar concentration IC50 (M) necessary for the inhibition of 50% of the enzymatic activity. The experimental method B was the method of A. A. Kandutsch, et al., J. Biol. Chem., 248, 8403 (1973) for measuring the quantity of ^14 C-cholesterol biosynthesis from acetic acid-^14 C in mouse L cells. The activity is expressed for inhibition of 50% of the biosynthesis of cholesterol.

[2] = tested on: mouse L cells; conditions: method B, values of Belgian Pat. No. 867,421, read-out: IC50 (inhibition of 50% of the biosynthesis of cholesterol) as reported in the cited Belgian patent; cited from earlier work
[3] = biological target: T1, 3-hydroxy-3-methylglutaryl-coenzyme A reductase; conditions: method A; values of Belgian Pat. No. 867,421; read-out: IC50 as reported in the cited Belgian patent; cited from earlier work

SMILES | IC50 [1] | IC50 [2] | IC50 [3]
Cc1cc(C)cc(-c2cc(C)cc(C)c2C=CC2CC(O)CC(=O)O2)c1 (stereo not drawn) [6-[2-(3,3',5,5'-tetramethyl-[1,1'-biphenyl]-2-yl)ethenyl]-3,4,5,6-tetrahydro-4-hydroxy-2H-pyran-2-one] | 15 nM |  | 
CC[C@H](C)C(=O)O[C@H]1CCC=C2C=C[C@H](C)[C@H](CC[C@@H]3C[C@@H](O)CC(=O)O3)[C@H]21 [compactin] |  | ~8 nM | ~8 nM
O=C1C[C@@H](O)C[C@H](CCc2c(Cl)cc(Cl)cc2OCc2ccccc2)O1 [Example 14, (+)-Trans-6-[2-(2,4-dichloro-6-phenylmethoxyphenyl)ethyl]-3,4,5,6-tetrahydro-4-hydroxy-2H-pyran-2-one] | 68 nM |  | 

Continued by falling IC50 [1], values first:

IC50 [1] | SMILES | IC50 [2] | IC50 [3]
~13 nM | O=C(O)C[C@H](O)C[C@H](O)/C=C/c1c(Cl)cc(Cl)cc1-c1ccc(F)cc1 (relative stereo) [Example 43, (+)-(E)-(3R*,5S*)-7-(3,5-dichloro-4'-fluoro[1,1'-biphenyl]-2-yl)-3,5-dihydroxy-6-heptenoic acid, ammonium salt] |  | 
7 nM | Cc1cc(C)c(C=CC2CC(O)CC(=O)O2)c(-c2ccc(F)c(C)c2)c1 (stereo not drawn) [6-[2-(4'-fluoro-3,3',5-trimethyl[1,1'-biphenyl]-2-yl)ethenyl]-3,4,5,6-tetrahydro-4-hydroxy-2H-pyran-2-one] |  | 
